Test results reported in patent US12410124B2 (priority 2019, dated 2025).
Where two headings read alike, the source gives them in different places.

Legend:
substantia nigra CD11b = test: Number of substantia nigra microglial cells with CD11b positive expression in MPTP Parkinson's disease model mouse (immunohistochemistry); type: in vivo; conditions: for Positive cell number (microglial cells with CD11b positive expression): substantia nigra, MPTP Parkinson's disease model mouse, immunohistochemistry
Procedure: (§1) Neurotoxins can be used to establish PD animal models. Currently, 1-methyl-4-phenyl-1,2,3,6-tetrahydropyridine (MPTP) is the sole synthetic toxin which is recognized to induce PD symptoms in human and non-human primates and in mice. Using MPTP subacute modeling method, C57BL/6J male mice were intraperitoneally injected with MPTP 30 mg/kg, once a day for 5 consecutive days. The experiment animals were divided into blank control group, MPTP model group, and compound treatment group. For the […] compound treatment group, the compound was administrated by gavage for 21 consecutive days after the completion of modeling; for the MPTP model group, the normal saline was administrated by gavage for 21 consecutive days after the completion of modeling; and for the blank control group, the normal saline was first intraperitoneally injected for 5 days, and then administrated by gavage for 21 days.
(§2) Neuron-glial cell network homeostasis disorder is an important factor for the selective and progressive death of substantia nigra dopaminergic neurons in PD. In the neurotoxic effect of MPTP, the excessive activations of microglial cells and astrocytes produce a variety of inflammatory cytokines and reactive oxygen species (ROS). These inflammatory factors and ROS amplify their respective toxicities and mediate malignant feedback loop, causing a cascade inflammation response and aggravating the pathological process of PD. CD11b and GFAP are the marker proteins for activations of microglial cells and astrocytes, respectively. Therefore, the effect of the target compounds on the activations of the microglial cells and astrocytes in the substantia nigra, hippocampus, and midbrain areas of MPTP-induced PD mice can be investigated, to explore the mechanism of the anti-PD effect of the target compounds by inhibiting the neuroinflammation.
(§3) Half of experiment mice in each group were taken to separate the midbrain after perfusion and fixation. The tissue was trimmed, and the substantia nigra area was taken to prepare paraffin sections. The CD11b immunohistochemical staining was performed for the statistics of the change in the number of microglial cells with CD11b positive expression. The experiment included blank control group, MPTP model group, positive control group (caffeic acid phenethyl ester, CAPE), prototype control group (styryl sulfone compounds 3B, 3C, 3D, and 3G, whose structures are shown as above), and target compound group.

primary glial cells = test: Inhibition of the NO release of primary glial cells induced by LPS; type: cell-based, rat; conditions: for inhibition at 2 µM / inhibition at 5 µM / inhibition at 10 µM / inhibition at 20 µM: Rattus norvegicus, Glial cell, read-out: NO inhibition (%)
From the text: Lipopolysaccharide (LPS) is a main component of the cell wall of Gram-negative bacteria. It is a potent inflammatory factor that can directly activate gliocytes, and the activated gliocytes secrete a large amount of inflammation mediators such as tumor necrosis factor, interleukin, and nitric oxide, thus causing inflammatory reactions and oxidative stress reactions and eventually leading to neuronal denaturation and death. In recent years, the targeted injection of LPS into rat substantia nigra or striatum to induce neuroinflammation can successfully establish PD models, which can simulate most of the clinical manifestations and pathological features of PD, and are used for the study on the neuroinflammation mechanism associated with PD. LPS-induced primary glial cell PD inflammation model is suitable for the preliminary anti-neuroinflammation screening for neuroprotective agents. LPS is used to directly activate primary glial cells to simulate the pathogenesis mechanism of neuroinflammation, and the inhibitory activity of the target compounds on the inflammatory response of primary glial cells can be investigated.
The materials were taken from the brain tissue of fetal rat, for primary glial cell culture. At 7 to 10 days of the culture, LPS was added for the activation of nitric oxide (NO) release in glial cells. When a target compound was added, the reduction value for NO content in the cell culture medium was measured, to evaluate the anti-neuroinflammation activity of the compound. The experiment included blank control group, LPS model group, positive control group (caffeic acid phenethyl ester, CAPE), prototype control group (styryl sulfone compounds 3B, 3C, 3D, and 3G, the structures of which compounds are shown as above), and target compound group.

[1] = test system: fetal rat midbrain neurons; test: Survival rate of primary midbrain neurons induced by MPP+ (CCK-8); type: cell-based; conditions: for viability at 5 µM / viability at 10 µM / viability at 20 µM: Rattus norvegicus, Neuron, read-out: Survival rate (%); for survival rate compared with the styryl sulfone prototype compounds: no concentration stated
From the text: The main pathological feature of Parkinson's disease (PD) lies in the degeneration and loss of dopaminergic neuron in the substantia nigra-striatum of the midbrain. 1-Methyl-4-phenylpyridinium (MPP+) has a high affinity to dopamine carriers and a selective toxicity on dopaminergic neurons. Thus, MPP+ is one of the most ideal classic neurotoxins for establishing PD cell models. The primary cell culture of fetal rat midbrain is often used to establish PD cell models in recent years. Although it is more cumbersome and has higher technical requirements than cell line culture, it is closer to the pathological characteristics of PD. Thus, a PD cell model is established using neurons from the primary cell culture of fetal rat midbrain under MPP+ induction, to evaluate the protective effect of target compounds on the model neurons.
The midbrain was separated from a fetal rat of a 15-day-pregnant SD rat and cut into pieces, then subjected to trypsin digestion, pipetting, screen filtration, and resuspension steps, and inoculated in a 24-well cell culture plate pre-coated with poly-D-lysine. 12 hours after culture, cytarabine was added to inhibit the growth of glial cells. On the 5th day of neuron growth, the toxin MPP+ can be added to make a PD cell model. When detecting the activity of a target compound, the target compound was pre-incubated with midbrain neurons for 3 h, then MPP+ was added, and after 48 h co-incubation the neuronal viability was detected by CCK-8 method and the neuronal survival rate was calculated to evaluate the inhibitory activity of the target compound on the midbrain neuronal PD damage. The experiment included blank control group, MPP+ model group, positive control group (caffeic acid phenethyl ester, CAPE), prototype control group (styryl sulfone compounds 3B, 3C, 3D, and 3G), and target compound group (prepared according to Examples 1-22 in the invention).

[2] = biological target: acetylcholinesterase (AchE) (Homo sapiens, UniProt P22303); test: biochemical
Procedure: The modified Ellman method was used to determine the inhibitory activity on acetylcholinesterase. The principle lies in that acetylthiocholine iodide is decomposed under the action of acetylcholinesterase (AchE) to generate thiocholine. The thiocholine is quickly reacted with DTNB as the colour-developing agent to generate a yellow substance with light absorption at 405 nm. To a 96-well microplate, 50 μl of enzyme reaction buffer, 125 μl of DTNB (3 mM), 25 μl of test sample or positive control drug, and 25 μl of AchE (0.2 U/ml) were successively added. After incubation at room temperature for 5 min, 25 μl of ATCI (15 mM) was added. After incubation at room temperature for 8 min, the absorbance value was determined at 405 nm with a microplate reader. A blank control group without enzyme (25 μl PBS instead of the sample to be tested) was also established.

hippocampus CD11b = test: Number of hippocampus microglial cells with CD11b positive expression in MPTP Parkinson's disease model mouse (immunohistochemistry); type: in vivo; conditions: for Positive cell number (microglial cells with CD11b positive expression): hippocampus, MPTP Parkinson's disease model mouse, immunohistochemistry
Procedure: as §1, §2
as §3, with “hippocampus” for “substantia nigra”

[3] = 5 μM, 3 h pre-incubation, 48 h with MPP+
[4] = 10 μM, 3 h pre-incubation, 48 h with MPP+
[5] = 20 μM, 3 h pre-incubation, 48 h with MPP+
[6] = acetylcholinesterase, modified Ellman method, read-out: IC50

acetylcholinesterase (AchE), sequence (P22303 32-614, species assumed): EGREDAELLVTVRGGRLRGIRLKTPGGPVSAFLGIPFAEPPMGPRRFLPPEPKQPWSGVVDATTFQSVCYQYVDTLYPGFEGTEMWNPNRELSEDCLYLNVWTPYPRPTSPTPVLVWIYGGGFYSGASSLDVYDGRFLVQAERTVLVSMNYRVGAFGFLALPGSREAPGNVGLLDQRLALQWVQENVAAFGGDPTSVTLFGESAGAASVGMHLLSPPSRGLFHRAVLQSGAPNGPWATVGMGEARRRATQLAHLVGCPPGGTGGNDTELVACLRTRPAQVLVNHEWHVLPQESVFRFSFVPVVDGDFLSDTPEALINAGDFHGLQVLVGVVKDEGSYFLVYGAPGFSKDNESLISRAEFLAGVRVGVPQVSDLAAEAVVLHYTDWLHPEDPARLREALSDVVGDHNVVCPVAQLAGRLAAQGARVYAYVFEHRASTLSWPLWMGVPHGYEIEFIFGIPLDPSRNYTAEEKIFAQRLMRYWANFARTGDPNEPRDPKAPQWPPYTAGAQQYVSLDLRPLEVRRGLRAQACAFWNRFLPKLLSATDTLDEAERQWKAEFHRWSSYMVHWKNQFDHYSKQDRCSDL

SMILES	Positive cell number (microglial cells with CD11b positive expression) (substantia nigra CD11b)	inhibition at 2 µM (primary glial cells; 2 μM) [%]	inhibition at 5 µM (primary glial cells; 5 μM) [%]	inhibition at 10 µM (primary glial cells; 10 μM) [%]	viability at 5 µM [1, 3] [%]	viability at 10 µM [1, 4] [%]	viability at 20 µM [1, 5] [%]	IC50 [2, 6] [µM]	Positive cell number (microglial cells with CD11b positive expression) (hippocampus CD11b)	also measured
CCN(CC)C(=O)Oc1ccc(/C=C/S(=O)(=O)Cc2ccc(Cl)cc2)cc1OC(=O)N(CC)CC [Compound D1-1, (E)-4-{2-[(4-chlorophenyl)mesyl]ethenyl}-1,2-phenylenebis(diethylcarbamate)]	15 ± 3	24.8 ± 4.08	61.4 ± 2.77	84.5 ± 7.56	80.3 ± 2.67	94.6 ± 3.76	98 ± 1.32	4.16 ± 1.07	7 ± 1	number of substantia nigra microglial cells with CD11b positive expression compared with the styryl sulfone prototype compounds (substantia nigra CD11b): significantly lower; NO inhibitory rate compared with the styryl sulfone prototype compounds (primary glial cells): equivalent or higher inhibitory rate; survival rate compared with the styryl sulfone prototype compounds [1]: significantly increased; number of hippocampus microglial cells with CD11b positive expression compared with the styryl sulfone prototype compounds (hippocampus CD11b): significantly lower
CC(=O)Oc1ccc(/C=C/S(=O)(=O)Cc2c(F)c(F)c(F)c(F)c2F)cc1OC(=O)NC(=O)c1ccc([N+](=O)[O-])c(C)c1 [Compound D5-4, (E)-2-[N-(3-methyl-4-nitrobenzoyl)carbamoyloxy]-4-{2-[(perfluorophenyl)mesyl]ethenyl}phenyl acetate]	41 ± 3	24.3 ± 2.82	–	80.7 ± 4.06	60.5 ± 3.19	73.2 ± 4.53	87.5 ± 2.16	20.8 ± 3.12	12 ± 2	–
CNC(=O)Oc1ccc(/C=C/S(=O)(=O)CC(Cl)c2ccc(Cl)c([N+](=O)[O-])c2)cc1O (stereo not shown) [Compound E2-2, (E)-4-{2-[2-chloro-2-(4-chloro-3-nitrophenyl)ethylsulfonyl]ethenyl}-2-hydroxyphenyl-N-methylcarbamate]	40 ± 5	–	–	–	–	–	–	–	15 ± 2	inhibition at 5 µM (primary glial cells): 20.3 ± 4.73%; inhibition at 10 µM (primary glial cells): 36.8 ± 6.11%; inhibition at 20 µM (primary glial cells): 68.9 ± 3.75%; viability at 5 µM ([1]; 48 h): 58.1 ± 4.27%; viability at 10 µM ([1]; 48 h): 69.3 ± 2.33%; viability at 20 µM ([1]; 48 h): 86.1 ± 2.06%; IC50 [2]: 51.3 ± 3.94 µM
CCN(CC)C(=O)Oc1ccc(/C=C/S(=O)(=O)Cc2ccc(C(C)(C)C)cc2)cc1OC(=O)N(CC)CC [Compound G1-1, (E)-4-{2-[(4-t-butylphenyl)mesyl]ethenyl}-1,2-phenylenebis(diethylcarbamate)]	36 ± 3	27.2 ± 3.98	64.2 ± 3.25	85.8 ± 5.01	78.5 ± 3.59	85.9 ± 2.67	91.4 ± 1.59	10.8 ± 2.13	6 ± 1	number of substantia nigra microglial cells with CD11b positive expression compared with the styryl sulfone prototype compounds (substantia nigra CD11b): significantly lower; NO inhibitory rate compared with the styryl sulfone prototype compounds (primary glial cells): equivalent or higher inhibitory rate; survival rate compared with the styryl sulfone prototype compounds [1]: significantly increased; number of hippocampus microglial cells with CD11b positive expression compared with the styryl sulfone prototype compounds (hippocampus CD11b): significantly lower
CCOC(CS(=O)(=O)/C=C/c1ccc(OC(C)=O)c(OC(=O)Nc2ccc(NC)cc2)c1)C(OCC)c1ccc(OCc2ccccc2)c(O)c1 (stereo not shown) [Compound H2-4, (E)-4-{2-[3-(4-benzyloxy-3-hydroxyphenyl)-2,3-diethoxypropyl]sulfonylethenyl}-2-[N-(4-methylaminophenyl)carbamoyloxy]phenyl acetate]	29 ± 4	32.2 ± 4.49	50.1 ± 5.37	85.4 ± 4.9	69 ± 4.31	81.5 ± 3.24	89.4 ± 1.65	11.3 ± 1.34	7 ± 1	–
COCCN(C)C(=O)Oc1cc(/C=C/S(=O)(=O)CCc2cccc(-c3ccc(C)o3)c2)ccc1OC(C)=O [Compound J1-4, (E)-2-[N-(2-methoxyethyl)-N-methylcarbamoyloxy]-4-{2-[3-(5-methylfur-2-yl)phenylethylsulfonyl]ethenyl}phenyl acetate]	24 ± 5	–	–	–	–	–	–	–	10 ± 2	inhibition at 2 µM (primary glial cells): 24.8 ± 5.02%; inhibition at 5 µM (primary glial cells): 40.9 ± 3.94%; inhibition at 10 µM (primary glial cells): 69.7 ± 5.85%; viability at 5 µM ([1]; 48 h): 75.2 ± 3.29%; viability at 10 µM ([1]; 48 h): 84.8 ± 2.27%; viability at 20 µM ([1]; 48 h): 90.3 ± 2.6%; IC50 [2]: 8.54 ± 1.65 µM
CC(Br)C(Br)COc1cc(/C=C/S(=O)(=O)CCc2ccc(OCC(F)(F)F)cc2)ccc1OC(=O)Nc1ccsc1 (stereo not shown) [Compound K1-3, (E)-2-(2,3-dibromobutoxy)-4-{2-[4-(2,2,2-trifluoroethoxy)phenylethylsulfonyl]ethenyl}phenyl-N-(thien-3-yl)carbamate]	32 ± 4	–	33.3 ± 6.71	54.2 ± 4.06	65.4 ± 4.31	72.1 ± 2.77	83.2 ± 1.76	22.3 ± 3.17	16 ± 1	inhibition at 20 µM (primary glial cells; 20 μM): 81.4 ± 4.29%
